Test results as given in ChEMBL document CHEMBL5113553, “Synthesis and Bioactivity of Thiocarboxylic A and Derivatives” (J Nat Prod, 2022).
Converted amounts (≈) assume the structure as drawn.

Experiments:
[1] = tested on: Staphylococcus aureus; experiment: Antibacterial activity against wild type Staphylococcus aureus USA300 incubated for 24 hrs; assay type: functional
[2] = tested on: Escherichia coli; experiment: Antibacterial activity against wild type Escherichia coli incubated for 24 hrs; assay type: functional
[3] = tested on: L929; experiment: Cytotoxicity against mouse L929 cells upto 100 uM measured after 72 hrs by alamar blue assay; assay type: toxicity, cell-based; conditions: l929, 72 h
[4] = tested on: Escherichia coli; experiment: Antibacterial activity against Escherichia coli harboring delta tolC mutant assessed as inhibition of bacterial growth incubated for 24 hrs; assay type: functional, organism-based
[5] = tested on: Candida albicans; experiment: Antifungal activity against Candida albicans assessed as fungal growth inhibition; assay type: functional

SMILES: CC/C=C/C=C/[C@@]1(C)OC(c2sccc2C)=C(C(=O)OC)C1=O
- MIC [1]: > 100 µM
- MIC [2]: > 100 µM
- Activity [3]: Non-Toxic

SMILES: CCCC/C=C/C=C/[C@@]1(C)OC(c2ccsc2C)=C(C(=O)OC)C1=O
- MIC [1]: > 100 µM
- MIC [2]: > 100 µM
- Activity [3]: Non-Toxic

SMILES: CC/C=C/C=C/[C@@]1(C)OC(c2ccsc2C)=C(C(=O)OC)C1=O
- MIC [1]: 1.7 mg/L
- MIC [2]: 1.7 mg/L
- IC50 [4]: 44 µM
- Activity [3]: Non-Toxic
- MIC [5]: 1.7 mg/L (≈ 5.11 µM)

SMILES: CC/C=C/C=C/[C@@]1(C)OC(c2ccc(C)s2)=C(C(=O)OC)C1=O
- MIC [1]: > 100 µM
- MIC [2]: > 100 µM
- Activity [3]: Non-Toxic
